Data on 27 compounds can be found in patent US20230286930A1, “N -SUBSTITUTED 4-(1,3-ARYLOXAZOLO-2-YL)PHENYL COMPOUNDS FOR THE TREATMENT AND PROPHYLAXIS OF HEPATITIS B VIRUS INFECTION” (Hoffmann-La Roche Inc., priority 2020, published 2023).

One data set concerns HBsAg. Nature of the data set: PHH natural infection assay, HBsAg (alphalisa). The note with it: Hepatitis B virus, read-out: HBsAg IC50. Type of data set: cell-based, HBV. As to the method: (§1) Detailed procedures regarding primary human hepatocyte (PHH) HBV natural infection assay are described as below. One tube of frozen PHH (10 million cells) is thawed in 37° C. water bath and then transferred to 20 mL of PHH thawing medium (Sigma, InVitroGRO HT Medium, Cat. S03319) with gently mixing. The cells were then centrifuged at […] for 5 min, the supernatant was discarded and the tube was refilled with 25 mL of PHH plating medium (Sigma, InVitroGRO CP Medium, Cat. S03317). The tube was shaken very gently to re-suspend all cells, and then 50 μL of cells were transferred to each well 384-well collagen I coated plate with appropriate liquid handling equipment, e.g. Integra VIAFLO384 or Agilent Bravo. The cells were then cultured for 24 hours in a cell incubator. For HBV infection, after PHH attachment on the culture plate, the plating medium was removed and replenished with PHH culture medium containing HBV virus. The PHH culture medium was prepared with Dulbecco's Modified Eagle Medium (DMEM)/F12 (1:1 in volume ratio) containing 10% fetal bovine serum (Gibco, Cat. 10099141), 5 ng/mL human epidermal growth factor (Gibco, Cat.PHG0311L), 20 ng/mL dexamethasone (Sigma, Cat.D4902-100 mg), 250 ng/mL human recombinant insulin (Gibco, Cat.41400045) and 100 U/mL penicillin. HBV virus at 200 genome equivalent (GE) per cell with 4% PEG8000 (Sigma, Cat.P1458) containing culture medium were added to the PHH culture medium for infection. The cells were then cultured for 24 hours in cell incubator. Then the cell culture supernatant was removed. The HBV-infected PHH were cultured with sandwich culture method with PHH culture medium containing 1% DMSO and 0.25 mg/mL matrix gel for 72 hours. The supernatant was then refreshed with PHH culture medium containing different concentrations of testing compounds for two times with 72-hour interval. At the end of treatment, the supernatant was collected for viral markers measurements, including HBsAg, HBeAg, HBV DNA and cytotoxicity. HBsAg and HBeAg were detected using alphalisa method using their specific antibodies. For HBV DNA detection, HBV DNA Quantitative Fluorescence Diagnostic Kit (Sansure Biotech Inc.) was used following the manufacture's protocol. Cytotoxicity was determined using Cell Counting Kit-8 (CCK8, Dojindo Molecular Technologies, Inc.).
(§2) The compounds of the present invention were tested for their capacity to inhibit HBsAg and HBeAg as described herein.

In another data set the test system is HBeAg. Briefly: PHH natural infection assay, HBeAg (alphalisa). The conditions noted are these: Hepatitis B virus, read-out: HBeAg IC50. Type of data set: cell-based, HBV. As to the method: as §1, §2
Data set [1] is described as follows: PHH natural infection assay, cytotoxicity (Cell Counting Kit-8). Type of data set: cell-based. The note with it: human. The protocol:
as §1

The structures appear in SMILES notation. pIC50: −log10 of the molar value. Where only a bound is given, the exact number is not on record here.

With `O=C(Nc1ccc(-c2nc3cccnc3o2)cc1)[C@H]1CCS(=O)(=O)C1` (single isomer, unassigned) [Example 86-a], the pIC50 in the data set on HBsAg was 5.35; with HBeAg it was 5.14. For the same compound, the cytotoxic concentration (CC50) at 144 h in data set [1] is more than 100 µM.
In the same order, the values of `O=C(Nc1ccc(-c2nc3cccnc3o2)cc1)[C@@H]1CCS(=O)(=O)C1` (single isomer, unassigned) [Example 86-b] are 5.71, 5.73 and more than 100 µM.
As to `O=C(Nc1ccc(-c2nc3cc(Cl)ccc3o2)cc1)[C@@H]1CCOC1` (single isomer, unassigned) [Example 87-a], the pIC50 in the data set with HBsAg and in the data set on HBeAg was 5.39 in each case. This compound also displayed a CC50 at 144 h in data set [1] of more than 100 µM.
In the case of `O=C(Nc1ccc(-c2nc3cc(Cl)ccc3o2)cc1)[C@H]1CCOC1` (single isomer, unassigned) [Example 87-b], the results for the pIC50 with HBsAg and in the data set with HBeAg were 5.40 and 5.42, respectively. Also, in data set [1], the CC50 at 144 h is more than 100 µM.
In the same order, the values of `O=C(Nc1ccc(-c2nc3ccc(F)cc3o2)cc1)C1CCOC1` (stereo not drawn) [Example 1, N-[4-(6-fluoro-1,3-benzoxazol-2-yl)phenyl]tetrahydrofuran-3-carboxamide] are 6.11, 6.15 and more than 100 µM.
Turning to `CC(O)C(=O)Nc1ccc(-c2nc3ccc(F)cc3o2)cc1` (stereo not drawn) [Example 2, N-[4-(6-fluoro-1,3-benzoxazol-2-yl)phenyl]-2-hydroxy-propanamide], the figures for the pIC50 with HBsAg and in the data set with HBeAg were 5.94 and 5.89, respectively. This compound also showed a CC50 at 144 h in data set [1] of more than 100 µM.
The corresponding values for `CC(C)(C)C(=O)Nc1ccc(-c2nc3ccc(F)cc3o2)cc1` [Example 3, N-[4-(6-fluoro-1,3-benzoxazol-2-yl)phenyl]-2,2-dimethyl-propanamide] are 5.91, 5.79 and more than 100 µM.
As to `O=C(Nc1ccc(-c2nc3ccc(F)cc3o2)cc1)C1CCSCC1` [Example 4, N-[4-(6-fluoro-1,3-benzoxazol-2-yl)phenyl]tetrahydrothiopyran-4-carboxamide], the pIC50 was 5.97 in the data set with HBsAg and 6.19 in the data set on HBeAg. In data set [1], this compound returned a CC50 at 144 h of more than 100 µM.
In the same order, the values of `CC1(C(=O)Nc2ccc(-c3nc4ccc(F)cc4o3)cc2)CCCO1` (stereo not drawn) [Example 5, N-[4-(6-fluoro-1,3-benzoxazol-2-yl)phenyl]-2-methyl-tetrahydrofuran-2-carboxamide] are 5.84, 5.84 and more than 100 µM.
Take `CC(C)(C)C(=O)Nc1ccc(-c2nc3cc(F)ccc3o2)cc1` [Example 6, N-[4-(5-fluoro-1,3-benzoxazol-2-yl)phenyl]-2,2-dimethyl-propanamide]: the negative-log IC50 (pIC50) in the data set on HBsAg is 5.79; in the data set on HBeAg it was 5.26. The same compound gave a CC50 at 144 h in data set [1] of more than 100 µM.
In the same order, the values of `O=C(Nc1ccc(-c2nc3cc(F)ccc3o2)cc1)C1CCSCC1` [Example 7, N-[4-(5-fluoro-1,3-benzoxazol-2-yl)phenyl]tetrahydrothiopyran-4-carboxamide] are 5.41, 5.29 and more than 100 µM.
In the same order, the values of `O=C(Nc1ccc(-c2nc3ccc(Cl)cc3o2)cc1)C1CCOC1` (stereo not drawn) [Example 8, N-[4-(6-chloro-1,3-benzoxazol-2-yl)phenyl]tetrahydrofuran-3-carboxamide] are 6.04, 6.09 and more than 100 µM.
In the same order, the values of `CCCC(=O)Nc1ccc(-c2nc3ccc(Cl)cc3o2)cc1` [Example 9, N-[4-(6-chloro-1,3-benzoxazol-2-yl)phenyl]butanamide] are 5.92, 5.84 and more than 100 µM.
Take `O=C(Nc1ccc(-c2nc3ccc(Cl)cc3o2)cc1)C1CCS(=O)(=O)C1` (stereo not drawn) [Example 10, N-[4-(6-chloro-1,3-benzoxazol-2-yl)phenyl]-1,1-dioxo-thiolane-3-carboxamide]: the results for the pIC50 with HBsAg and with HBeAg were 5.19 and 5.36, respectively. The same compound showed a 50% cytotoxic concentration (CC50) at 144 h in data set [1] of more than 100 µM.
The corresponding values for `O=C(Nc1ccc(-c2nc3cccc(F)c3o2)cc1)c1ccoc1` [Example 11, N-[4-(7-fluoro-1,3-benzoxazol-2-yl)phenyl]furan-3-carboxamide] are 5.69, 5.25 and more than 100 µM.
In the case of `CC1(C(=O)Nc2ccc(-c3nc4cccc(F)c4o3)cc2)COC1` [Example 12, N-[4-(7-fluoro-1,3-benzoxazol-2-yl)phenyl]-3-methyl-oxetane-3-carboxamide], the pIC50 is 6.32 in the data set on HBsAg and 6.20 with HBeAg. The compound also registered a CC50 at 144 h in data set [1] of more than 100 µM.
As for `CC(C)(O)C(=O)Nc1ccc(-c2nc3cccc(F)c3o2)cc1` [Example 13, N-[4-(7-fluoro-1,3-benzoxazol-2-yl)phenyl]-2-hydroxy-2-methyl-propanamide], the pIC50 was 6.59 with HBsAg and 6.72 with HBeAg. Also, in data set [1], the CC50 at 144 h was more than 100 µM.
The corresponding values for `O=C(Nc1ccc(-c2nc3cccc(F)c3o2)cc1)C12CC(C1)C2` [Example 14, N-[4-(7-fluoro-1,3-benzoxazol-2-yl)phenyl]bicyclo[1.1.1]pentane-1-carboxamide] are 6.48, 6.40 and more than 100 µM.
In the same order, the values of `O=C(Nc1ccc(-c2nc3cccc(F)c3o2)cc1)C1CCOC1` (stereo not drawn) [Example 15, N-[4-(7-fluoro-1,3-benzoxazol-2-yl)phenyl]tetrahydrofuran-3-carboxamide] are 6.00, 5.97 and more than 100 µM.
Take `O=C(Nc1ccc(-c2nc3cccc(F)c3o2)cc1)C12CC(F)(C1)C2` [Example 16, 3-fluoro-N-[4-(7-fluoro-1,3-benzoxazol-2-yl)phenyl]bicyclo[1.1.1]pentane-1-carboxamide]: the results for the pIC50 in the data set with HBsAg and in the data set with HBeAg were 6.32 and 6.36, respectively. This compound yielded a CC50 at 144 h in data set [1] of more than 100 µM.
The corresponding values for `O=C(Nc1ccc(-c2nc3cccc(F)c3o2)cc1)C1CCS(=O)(=O)C1` (stereo not drawn) [Example 17, N-[4-(7-fluoro-1,3-benzoxazol-2-yl)phenyl]-1,1-dioxo-thiolane-3-carboxamide] are 6.27, 6.20 and more than 100 µM.
For the compound `O=C(Nc1ccc(-c2nc3cccc(F)c3o2)cc1)C1CCS(=O)(=O)CC1` [Example 18, N-[4-(7-fluoro-1,3-benzoxazol-2-yl)phenyl]-1,1-dioxo-thiane-4-carboxamide], the figures for the pIC50 with HBsAg and with HBeAg were 6.04 and 6.02, respectively. In data set [1], the CC50 at 144 h is more than 100 µM.
The corresponding values for `CC(C)(C)C(=O)Nc1ccc(-c2nc3cccc(F)c3o2)cc1` [Example 19, N-[4-(7-fluoro-1,3-benzoxazol-2-yl)phenyl]-2,2-dimethyl-propanamide] are 6.17, 6.01 and more than 100 µM.
In the case of `O=C(Nc1ccc(-c2nc3cccc(F)c3o2)cc1)C1CC1` [Example 20, N-[4-(7-fluoro-1,3-benzoxazol-2-yl)phenyl]cyclopropanecarboxamide], the pIC50 in the data set on HBsAg is 6.15; in the data set with HBeAg, 6.16. The compound further registered a cytotoxic concentration (CC50) at 144 h in data set [1] of more than 100 µM.
Regarding `CC1(C(=O)Nc2ccc(-c3nc4cccc(F)c4o3)cc2)CCOC1` (stereo not drawn) [Example 21, N-[4-(7-fluoro-1,3-benzoxazol-2-yl)phenyl]-3-methyl-tetrahydrofuran-3-carboxamide], the figures for the pIC50 in the data set with HBsAg and in the data set with HBeAg were 6.14 and 6.07, respectively. The same compound had a CC50 at 144 h in data set [1] of more than 100 µM.
In the same order, the values of `O=C(Nc1ccc(-c2nc3cccc(F)c3o2)cc1)C1CC2CCC(C1)O2` (stereo not drawn) [Example 22, N-[4-(7-fluoro-1,3-benzoxazol-2-yl)phenyl]-8-oxabicyclo[3.2.1]octane-3-carboxamide] are 6.02, 5.91 and more than 100 µM.
The corresponding values for `O=C(Nc1ccc(-c2nc3cccc(F)c3o2)cc1)C1COCCO1` (stereo not drawn) [Example 23, N-[4-(7-fluoro-1,3-benzoxazol-2-yl)phenyl]-1,4-dioxane-2-carboxamide] are 6.19, 6.28 and more than 100 µM.
